As usually defined, the IC50 is the concentration at which inhibition is half-maximal.

Structures can show the parent of a compound that is named as a salt.

Common to all, as to experiment: Binding inhibition of 125I-somatostatin, CHO cell membrane fraction
The target in experiment [1] is T1, human somatostatin receptor SSTR4 (Homo sapiens, UniProt P31391).
T1 construct: expressed in transfected cells; host or cells: CHO (dhfr-) cells, strain SSTR4-1-2
The following applies: 125I-somatostatin binding, 25° C. for 60 minutes, read-out: Activities for human somatostatin receptor (IC50 value) SSTR4. The method, then: (§1) A human somatostatin receptor expression CHO cell strain, SSTR1-8-3, SSTR2-HS5-9, SSTR3-15-19, SSTR4-1-2 or SSTR5-32-4 (10^9), was suspended in a phosphate buffered saline containing 5mM of EDTA (PBS-EDTA). The suspension was centrifuged. To the cell pellet was added 10 ml of a homogenation buffer solution for cells (10 mM NaHCO3, 5 mM EDTA, pH=7.5). The mixture was homogenized by a Politron homogenizer and centrifuged at 400×g for 15 minutes. The supernatant obtained was farther centrifuged at 100,000×g for an hour to obtain a precipitate of the membrane fraction. The precipitate was suspended in 2 ml of a buffer solution for assay ([…], 0.1% of BSA (bovine serum albumin) and […], 1 μ/ml of pepstatin, 20 μg/ml of leupeptin, 10 μg/ml of phosphoramide, pH=7.5). The suspension was centrifuged at […] for an hour. The membrane fraction recovered as precipitate was suspended again in 20 ml of buffer solution for assay. The suspension was placed in tubes and stored at −80° C. The suspension was thawed when used, and used at every use.
(§2) The membrane fraction prepared in Example 1 was diluted with a buffer solution for assay to adjust the concentration to 3 μg/ml. The diluate was placed in tubes each in quantity of 173 μl. To this were simultaneously added 2 μl of a solution of a compound in DMSO and 25μl of a 200pM radioisotope-labeled somatostatin (^125I-somatostatin: Amersham) solution. For measurement of the maximum binding, a reaction mixture added with 2 μl of DMSO and 25μl of a 200pM ^125I-somatostatin solution was prepared. For measurement of non-specific binding, a reaction mixture added with 2 μl of a 100 μM somatostatin solution diluted in DMSO and 25 μl of a 200pM ^125I-somatostatin solution was prepared at the same time. The mixtures were allowed to react at 25° C. for 60 minutes. Then, the reaction mixture was filtered by aspiration using a GF/B glass fiber filter paper (Whatman) treated with polyethylenimine. After filtration, the radioactivity of 125I-somatostatin remaining on the filter paper was measured by a γ-counter.
(§3) The binding rate (%) of each compound was calculated by the formula: […]
(§4) (where PBM: Percent maximum Binding, B: radioactivity when a compound was added, Bo: maximum binding radioactivity, NSB: non-specific binding radioactivity). The binding rates were calculated by changing the concentrations of the compound to obtain the 50% inhibiting concentration of the compound (IC50 value) by the Hil l plots.
(§5) The activities (IC50 value, μM) of the compounds for each human somatostatin receptor obtained by the above method are shown in the following Table 5.

The target in experiment [2] is T2, human somatostatin receptor SSTR5 (Homo sapiens, UniProt P35346).
T2 construct: expressed in transfected cells; host or cells: CHO (dhfr-) cells, strain SSTR5-3-2-4 (also printed SSTR5-32-4)
T2 sequence (P35346 whole entry): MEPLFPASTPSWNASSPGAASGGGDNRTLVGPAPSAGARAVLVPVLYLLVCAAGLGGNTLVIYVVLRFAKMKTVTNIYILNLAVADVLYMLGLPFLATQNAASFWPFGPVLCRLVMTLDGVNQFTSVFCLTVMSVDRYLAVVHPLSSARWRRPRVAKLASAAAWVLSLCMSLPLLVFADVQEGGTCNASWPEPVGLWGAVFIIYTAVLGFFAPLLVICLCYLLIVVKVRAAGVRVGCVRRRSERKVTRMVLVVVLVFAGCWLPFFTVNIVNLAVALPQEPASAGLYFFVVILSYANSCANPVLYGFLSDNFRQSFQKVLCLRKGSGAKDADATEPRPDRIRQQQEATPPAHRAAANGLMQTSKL
The following applies: 125I-somatostatin binding, 25° C. for 60 minutes, read-out: Activities for human somatostatin receptor (IC50 value) SSTR5. The method, then:
as §1, §2, §3, §4, §5

For experiment [3], the target named is T3, human somatostatin receptor SSTR3 (Homo sapiens, UniProt P32745).
T3 construct: expressed in transfected cells; host or cells: CHO (dhfr-) cells, strain SSTR3-15-19
T3 sequence (P32745 whole entry): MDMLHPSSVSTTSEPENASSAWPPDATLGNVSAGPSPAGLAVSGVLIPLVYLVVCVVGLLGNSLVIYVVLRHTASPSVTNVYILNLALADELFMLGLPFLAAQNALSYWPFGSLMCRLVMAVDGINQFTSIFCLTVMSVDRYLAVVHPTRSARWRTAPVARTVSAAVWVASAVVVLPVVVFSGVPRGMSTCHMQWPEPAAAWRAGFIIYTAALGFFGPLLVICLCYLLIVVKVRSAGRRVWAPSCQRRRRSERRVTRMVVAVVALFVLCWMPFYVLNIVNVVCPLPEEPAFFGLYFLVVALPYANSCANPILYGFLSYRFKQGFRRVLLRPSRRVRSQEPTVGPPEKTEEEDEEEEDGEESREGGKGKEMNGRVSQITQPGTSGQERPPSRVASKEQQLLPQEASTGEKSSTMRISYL
The following applies: 125I-somatostatin binding, 25° C. for 60 minutes, read-out: Activities for human somatostatin receptor (IC50 value) SSTR3. How it is done: as §1, §2, §3, §4, §5

The target of experiment [4] is T4, human somatostatin receptor SSTR1 (Homo sapiens, UniProt P30872).
T4 construct: expressed in transfected cells; host or cells: CHO (dhfr-) cells, strain SSTR1-8-3
T4 sequence (P30872 whole entry): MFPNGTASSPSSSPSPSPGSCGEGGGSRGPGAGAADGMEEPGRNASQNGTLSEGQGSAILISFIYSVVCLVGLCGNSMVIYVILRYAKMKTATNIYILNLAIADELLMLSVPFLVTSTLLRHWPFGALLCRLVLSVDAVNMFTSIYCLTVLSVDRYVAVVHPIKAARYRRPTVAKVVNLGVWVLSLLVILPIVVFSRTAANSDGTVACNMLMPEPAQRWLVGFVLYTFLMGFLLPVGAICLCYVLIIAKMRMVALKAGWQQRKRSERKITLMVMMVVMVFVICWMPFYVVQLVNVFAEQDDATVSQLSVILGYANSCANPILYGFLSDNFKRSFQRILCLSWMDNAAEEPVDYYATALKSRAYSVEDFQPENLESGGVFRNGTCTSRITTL
The following applies: 125I-somatostatin binding, 25° C. for 60 minutes, read-out: Activities for human somatostatin receptor (IC50 value) SSTR1. The method, then: as §1, §2, §3, §4, §5

The target of experiment [5] is T5, human somatostatin receptor SSTR2 (Homo sapiens, UniProt P30874).
T5 construct: expressed in transfected cells; host or cells: CHO (dhfr-) cells, strain SSTR2-HS5-9
T5 sequence (P30874 whole entry): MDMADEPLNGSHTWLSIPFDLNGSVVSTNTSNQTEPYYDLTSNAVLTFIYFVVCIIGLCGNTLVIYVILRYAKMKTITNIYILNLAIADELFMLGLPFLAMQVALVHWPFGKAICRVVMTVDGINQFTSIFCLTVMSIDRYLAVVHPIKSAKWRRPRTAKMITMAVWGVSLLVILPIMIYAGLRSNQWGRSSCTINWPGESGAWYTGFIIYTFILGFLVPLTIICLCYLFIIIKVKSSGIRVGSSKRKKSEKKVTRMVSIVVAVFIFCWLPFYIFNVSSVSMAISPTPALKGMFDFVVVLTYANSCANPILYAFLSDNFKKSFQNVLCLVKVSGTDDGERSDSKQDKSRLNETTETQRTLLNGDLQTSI
To be noted: 125I-somatostatin binding, 25° C. for 60 minutes, read-out: Activities for human somatostatin receptor (IC50 value) SSTR2. The method, then:
as §1, §2, §3, §4, §5

T1 sequence (P31391 whole entry): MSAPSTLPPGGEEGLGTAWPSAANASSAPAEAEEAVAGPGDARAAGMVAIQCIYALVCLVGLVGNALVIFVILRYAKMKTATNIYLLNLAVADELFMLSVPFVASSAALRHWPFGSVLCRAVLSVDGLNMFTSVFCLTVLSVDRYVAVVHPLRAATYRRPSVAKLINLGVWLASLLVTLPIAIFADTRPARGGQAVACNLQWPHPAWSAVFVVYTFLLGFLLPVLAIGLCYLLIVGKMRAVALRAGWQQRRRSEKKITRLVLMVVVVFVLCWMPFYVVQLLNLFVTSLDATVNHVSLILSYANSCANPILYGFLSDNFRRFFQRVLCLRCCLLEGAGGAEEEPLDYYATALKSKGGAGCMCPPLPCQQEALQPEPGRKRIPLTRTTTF

Turning to `CC(C)(C)CN1C(=O)[C@H](CC(=O)NCc2ccccc2F)O[C@@H](c2cccc(CN)c2)c2cc(Cl)ccc21` [Example 25, (3S,5S)-N-(2-fluorobenzyl)-5-(3-aminomethylphenyl)-7-chloro-1-neopentyl-2-oxo-1,2,3,5-tetrahydro-4,1-benzoxazepine-3-acetamide•monohydrochloride], the 50% inhibitory concentration (IC50) came out at 4000 nM in experiment [1]; 7 nM in experiment [2]; 300 nM in experiment [3]; 8000 nM in experiment [4]; 6000 nM in experiment [5].
`CC(C)(C)CN1C(=O)[C@@H](CC(=O)NCc2ccccc2F)O[C@H](c2cccc(CN)c2)c2cc(Cl)ccc21` [Example 26, (3R,5R)-N-(2-fluorobenzyl)-5-(3-aminomethylphenyl)-7-chloro-1-neopentyl-2-oxo-1,2,3,5-tetrahydro-4,1-benzoxazepine-3-acetamide•monohydrochloride]: the IC50 in experiment [1] was 4000 nM; in experiment [2] it was 600 nM; in experiment [3] it was 7000 nM; in experiment [4] it was 10000 nM; in experiment [5], above 10000 nM.
Regarding `NCc1ccc(C2OC(CC(=O)NCc3ccccc3F)C(=O)N(Cc3ccc(-c4ccccc4)cc3)c3ccc(Cl)cc32)cc1` (stereo not drawn) [Example 87, 3,5-Trans-N-(2-fluorobenzyl)-5-(4-aminomethylphenyl)-1-(4-biphenylmethyl)-7-chloro-2-oxo-1,2,3,5-tetrahydro-4,1-benzoxazepine-3-acetamide•monohydrochloride], the IC50 in experiment [1] is 300 nM; in experiment [2], 1 nM; in experiment [3], 20 nM; in experiment [4], 800 nM; in experiment [5], 800 nM.
Regarding `COc1ccc(CN2C(=O)C(CC(=O)NCc3ccccc3F)OC(c3ccc(CN)s3)c3cc(Cl)ccc32)cc1` (stereo not drawn) [Example 91, 3,5-Trans-N-(2-fluorobenzyl)-5-(2-aminomethylthiophen-5-yl)-7-chloro-1-(4-methoxybenzyl)-2-oxo-1,2,3,5-tetrahydro-4,1-benzoxazepine-3-acetamide•monohydrochloride], the IC50 in experiment [1] was 1000 nM; in experiment [2], 7 nM; in experiment [3] it was 40 nM; in experiment [4], above 1000 nM; in experiment [5], above 1000 nM.
With `CC(C)(N)c1cccc(C2OC(CC(=O)NCc3ccccc3F)C(=O)N(Cc3ccc(-c4ccccc4)cc3)c3ccc(Cl)cc32)c1` (stereo not drawn) [Example 93, 3,5-Trans-N-(2-fluorobenzyl)-5-[3-[(1-amino-1-methyl)ethyl]phenyl]-1-(4-biphenylmethyl)-7-chloro-2-oxo-1,2,3,5-tetrahydro-4,1-benzoxazepine-3-acetamide•monohydrochloride], the IC50 in experiment [1] is 200 nM; in experiment [2], 9 nM; in experiment [3], 4 nM; in experiment [4], 900 nM; in experiment [5], 500 nM.

The record behind these values is patent US6352982B1, “4,1-benzoxazepines, their analogues, and their use as somatostatin agonists” (Takeda Chemical Industries, Ltd., priority 1997, dated 2002).
